Results from ChEMBL document CHEMBL1134804, “Studies leading to the identification of ZD1839 (IRESSA): an orally active, selective epidermal growth factor receptor tyrosine kinase inhibitor targeted to the treatment of cancer” (Bioorg Med Chem Lett, 2001).
pIC50: −log10 of the molar value.

What was measured:
KB 3-1 = experiment: cells; details: Homo sapiens
Description: In vitro inhibitory activity against EGF-stimulated proliferation of KB2 cells in culture

in vivo = details: mouse, po, 200 mg/kg
[1] = biological target: Epidermal growth factor receptor (Homo sapiens, UniProt P00533);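 also: tyrosine kinase inhibition of EGFR isolated from A431 vulval squamous carcinoma cells, measured in vitro with a TKI assay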
Epidermal growth factor receptor, sequence (P00533 whole entry): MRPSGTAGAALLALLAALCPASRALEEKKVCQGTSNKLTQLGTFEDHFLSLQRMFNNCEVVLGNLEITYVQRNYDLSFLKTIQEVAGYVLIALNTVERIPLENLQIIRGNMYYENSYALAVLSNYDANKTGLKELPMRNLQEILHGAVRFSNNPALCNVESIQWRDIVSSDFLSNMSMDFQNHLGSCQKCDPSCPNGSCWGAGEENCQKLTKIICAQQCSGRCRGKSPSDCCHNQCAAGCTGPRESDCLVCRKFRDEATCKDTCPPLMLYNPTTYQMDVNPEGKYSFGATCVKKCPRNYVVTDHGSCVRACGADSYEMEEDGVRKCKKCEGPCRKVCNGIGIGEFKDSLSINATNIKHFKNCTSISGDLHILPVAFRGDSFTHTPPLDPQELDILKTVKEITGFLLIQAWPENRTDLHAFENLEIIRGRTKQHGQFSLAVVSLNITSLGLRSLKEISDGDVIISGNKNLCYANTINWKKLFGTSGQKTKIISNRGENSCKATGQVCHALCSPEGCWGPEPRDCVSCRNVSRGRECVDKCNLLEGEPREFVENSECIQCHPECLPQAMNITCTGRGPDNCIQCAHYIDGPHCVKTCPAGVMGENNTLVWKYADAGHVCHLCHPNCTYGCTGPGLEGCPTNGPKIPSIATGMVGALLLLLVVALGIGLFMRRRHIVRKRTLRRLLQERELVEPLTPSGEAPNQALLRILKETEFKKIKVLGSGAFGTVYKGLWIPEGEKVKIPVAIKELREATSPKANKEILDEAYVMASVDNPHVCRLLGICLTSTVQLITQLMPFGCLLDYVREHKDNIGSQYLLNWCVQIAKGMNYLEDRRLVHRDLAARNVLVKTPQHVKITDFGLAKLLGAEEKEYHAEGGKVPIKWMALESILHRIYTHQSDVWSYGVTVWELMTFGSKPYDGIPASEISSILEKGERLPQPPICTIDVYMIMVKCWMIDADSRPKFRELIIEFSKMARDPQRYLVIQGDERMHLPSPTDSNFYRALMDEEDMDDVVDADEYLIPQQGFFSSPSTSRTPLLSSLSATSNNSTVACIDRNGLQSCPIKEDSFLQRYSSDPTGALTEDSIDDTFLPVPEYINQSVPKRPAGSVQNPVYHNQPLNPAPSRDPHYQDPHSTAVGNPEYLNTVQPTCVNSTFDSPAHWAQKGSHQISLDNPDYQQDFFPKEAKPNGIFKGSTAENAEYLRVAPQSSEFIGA
Description: In vitro inhibitory activity against Epidermal growth factor receptor (EGFR-TK) from A431 vulval squamous carcinoma cells using TKI assay

| pIC50 (KB 3-1) | concentration at 6 h (in vivo) | pIC50 [1] | Structure (SMILES) |
| --- | --- | --- | --- |
| 6.42 | 156 µM | – | COc1cc2ncnc(Nc3ccc(F)c(Cl)c3)c2cc1OCCN1CCOCC1 |
| 6.80 | 23 µM | 7.02 | COc1cc2ncnc(Nc3ccc(F)c(Cl)c3)c2cc1OC[C@@H](O)CN1CCOCC1 |
| 6.89 | 15 µM | 7.17 | COc1cc2ncnc(Nc3ccc(F)c(Cl)c3)c2cc1OC[C@H](O)CN1CCOCC1 |
| – | 5.2 µM | – | COc1cc2ncnc(Nc3ccc(F)c(Cl)c3)c2cc1OCCCN1CCCCC1 |
| 6.51 | 2.8 µM | 7.03 | CCN(CC)CCOc1cc2c(Nc3ccc(F)c(Cl)c3)ncnc2cc1OC |
| 6.46 | 1.6 µM | 8.10 | CNCCOc1cc2c(Nc3ccc(F)c(Cl)c3)ncnc2cc1OC |
| – | 164 µM | – | COc1cc2ncnc(Nc3ccc(F)c(Cl)c3)c2cc1OCCn1ccnc1 |
| 6.77 | 7.2 µM | 7.21 | COCCN(CCOC)CCOc1cc2c(Nc3ccc(F)c(Cl)c3)ncnc2cc1OC |
| – | 8.8 µM | – | COc1cc2ncnc(Nc3ccc(F)c(Cl)c3)c2cc1OCCCN1CCCC1 |
| 6.07 | 0.2 µM | 8.30 | COc1cc2ncnc(Nc3ccc(F)c(Cl)c3)c2cc1OCC(O)CN(CCO)CCO (stereo not drawn) |
| 7.05 | 7.1 µM | – | COc1cc2ncnc(Nc3ccc(F)c(Cl)c3)c2cc1OCCN1CCN(C)CC1 |
| – | 16 µM | – | COc1cc2ncnc(Nc3ccc(F)c(Cl)c3)c2cc1OC |
| – | 5.4 µM | – | CCN(CC)CCCOc1cc2c(Nc3ccc(F)c(Cl)c3)ncnc2cc1OC |
| 6.66 | 0.4 µM | 6.51 | COc1cc2ncnc(Nc3ccc(F)c(Cl)c3)c2cc1OCCNC(C)C |
| 6.04 | 0.1 µM | 7.16 | COc1cc2ncnc(Nc3ccc(F)c(Cl)c3)c2cc1OCCNC(C)(CO)CO |
| – | 16 µM | – | COc1cc2ncnc(Nc3ccc(F)c(Cl)c3)c2cc1OCCN1CCCCC1 |
| 6.66 | – | 8.30 | CNCC(O)COc1cc2c(Nc3ccc(F)c(Cl)c3)ncnc2cc1OC (stereo not drawn) |
| – | 0.1 µM | – | COc1cc2ncnc(Nc3ccc(F)c(Cl)c3)c2cc1OCC(O)CN (stereo not drawn) |
| 6.34 | 1 µM | 7.46 | COc1cc2ncnc(Nc3ccc(F)c(Cl)c3)c2cc1OCCN(CCO)CCO |
| 7.30 | – | – | COc1cc2ncnc(Nc3cccc(C)c3)c2cc1OC |
| 6.74 | 11 µM | 8.10 | COCCNCCOc1cc2c(Nc3ccc(F)c(Cl)c3)ncnc2cc1OC |
| 6.82 | 1.1 µM | 8.70 | COc1cc2ncnc(Nc3ccc(F)c(Cl)c3)c2cc1OCCNCCN(C)C |
| – | 8.2 µM | – | COc1cc2ncnc(Nc3ccc(F)c(Cl)c3)c2cc1OCCN1CCCC1 |
| 6.92 | 52 µM | 8.15 | COc1cc2ncnc(Nc3ccc(F)c(Cl)c3)c2cc1OCCN(C)C |
| 6.49 | 0.1 µM | 7.00 | COc1cc2ncnc(Nc3ccc(F)c(Cl)c3)c2cc1OCCNC(C)(C)C |
| – | 34 µM | – | COc1cc2ncnc(Nc3ccc(F)c(Cl)c3)c2cc1OCCCN(C)C |
| 6.42 | 0.04 µM | 8.10 | COc1cc2ncnc(Nc3ccc(F)c(Cl)c3)c2cc1OCC(O)Cn1ccnc1 (stereo not drawn) |
